Experiments:
[1] = system: New Zealand white rabbits, eyes abraded with a needle; assay: rabbit model, eyes abraded with a needle, medicated contact lens in right eye; format: in vivo
Description: New Zealand white rabbits were anesthetized, and then both eyes were abraded with a needle. A control contact lens was placed in the left eye, and a medicated contact lens was placed in the right eye of each rabbit for up to 4 hours prior to euthanasia. Control contact lenses (etafilcon A, an ionic lens with 58% water content) were washed with phosphate-buffered saline (PBS) prior to insertion. […] Rabbits were visually scored on a 0-4 scale (0 being the best and 4 being the worst) for corneal edema (which is a measure of wound healing), inflammation, and exudate production.

[2] = system: recurring epithelial defect; assay: human testing of medicated lens; format: in vivo; conditions: polymacon B lens soaked in 400 ppb EGF for 24 hours; one human patient; one administration
Description: This lens was placed in a human patient suffering from a recurring epithelial defect that was not responsive to traditional medical treatments. […] Desirably treatment lasts for at least one hour. This type of injury is normally treated by the repeated introduction of eye drops, sometimes as often as every 4-5 minutes. A contact lens of the present invention, however, was able to produce a positive result with only one administration.

[3] = system: bovine corneal endothelial cells; assay: in vitro wound closure, endothelial cell sheets contacted with contact lenses; format: cell-based
Description: (§1) Ocular cells were placed into a sterile plastic dish. This dish contained a 5-mm disk. The purpose of the disk was to prevent cells from growing in the covered area. When the disk was removed, a 5-mm “wound” or “hole” was present.
(§2) Contact lenses were then added to these cell sheets with the wounds. The lenses were left in contact with the cell sheets for a minimum of 30 minutes. Minimal medium was used to maintain the cell cultures. Cells were incubated at 35° C.±2° C. in 5% CO2. […] The contact lenses used were polymacon B, vifilcon A, and lidofilcon A hydrogel polymers.
(§3) The cell sheets were then viewed over time, and the diameter of the hole was measured.
(§4) The results are expressed in terms of closure of the in vitro wound over time.
(§5) Closure rates were calculated by direct measurement of the diameter of the wound. Measurements were taken daily.
Endothelial Cells and Tissue.

[4] = system: rabbit corneal epithelial cells; assay: in vitro wound closure, epithelial cell sheets contacted with contact lenses; format: cell-based; conditions: for healing: lens soaked in 10 ng/μL EGF
Description: as §1, §2, §3, §4
Epithelial Cells and Tissue. Epithelial (rabbit corneal epithelial cells) cells were seeded on a dish and contacted with control and EGF-containing contact lenses. […] At 72 hours, there was a 43% difference in the closure rate between the EGF-treated epithelial tissue and the controls. The hydrogel material that was used was vifilcon A, an ionic polymer with a water content of 55%.
as §5

[5] = contact lens, 400 ppb HGH soak, right eye
[6] = polymacon B lens soaked in 10 ng/μL EGF, 72 hours
[7] = vifilcon A lens soaked in 10 ng/μL EGF, 48 hours
[8] = vifilcon A lens soaked in 10 ng/μL EGF, 72 hours

human growth hormone [HGH]
toxicity to the ocular tissue ([1]; contact lens, 400 ppb HGH soak): no toxicity was observed
inflammation compared to control eyes [1, 5]: reduction in inflammation
wound healing compared to control eyes [1, 5]: increased wound healing

epidermal growth factor [EGF]
clinical efficacy (wound healing) [2]: Clinical efficacy (i.e., wound healing) was observed
increase in the healing rate (wound closure rate) compared to controls ([3]; lidofilcon A lens soaked in 10 ng/μL EGF, 48 hours): 54%
difference in healing rate compared to controls ([3]; lidofilcon A lens soaked in 10 ng/μL EGF, 72 hours): 44%
difference in closure between treated and untreated groups [3, 6]: 62%
wound closed [3, 6]: 80%
difference in closure rate between EGF treated group and controls ([3]; vifilcon A lens soaked in 5 ng/μL EGF, 48 hours): 31%
tissue healed ([3]; vifilcon A lens soaked in 5 ng/μL EGF, 72 hours): 53%
difference in healing rates compared to a control [3, 7]: 73%
tissue healed [3, 8]: completely healed
wound healing compared to control eyes ([1]; etafilcon A lenses soaked in 400 ppb EGF, first two hours after treatment): healed wounds at an accelerated rate
toxicity in rabbits ([1]; etafilcon A lenses soaked in 400 ppb, 4 ppm or 10 ppm EGF): No toxicity was observed
healing ([4]; 48 hours): 14%
healing ([4]; 72 hours): 25%
closure rate difference between controls and EGF treated ([4]; vifilcon A lens soaked in 5.0 ng/μL EGF, 48 hours): 21%
difference in the closure rate ([4]; vifilcon A lens soaked in 5.0 ng/μL EGF, 72 hours): 21%
difference in the closure rate between EGF-treated and non-EGF treated cells [4, 7]: 25%
difference in the closure rate between EGF-treated and controls [4, 8]: 43%
difference in the healing rates compared to a wound not contacted with any lens ([4]; vifilcon A lens with EGF, 48 hours): 31%
